In one experiment the target is T1, 5-LO (Homo sapiens, UniProt P09917).
T1 construct: incubating a test compound with heparinised human blood; endogenous in cells; host or cells: heparinised human blood (blood cells; A23187 challenge)
T1 sequence (P09917 1-674): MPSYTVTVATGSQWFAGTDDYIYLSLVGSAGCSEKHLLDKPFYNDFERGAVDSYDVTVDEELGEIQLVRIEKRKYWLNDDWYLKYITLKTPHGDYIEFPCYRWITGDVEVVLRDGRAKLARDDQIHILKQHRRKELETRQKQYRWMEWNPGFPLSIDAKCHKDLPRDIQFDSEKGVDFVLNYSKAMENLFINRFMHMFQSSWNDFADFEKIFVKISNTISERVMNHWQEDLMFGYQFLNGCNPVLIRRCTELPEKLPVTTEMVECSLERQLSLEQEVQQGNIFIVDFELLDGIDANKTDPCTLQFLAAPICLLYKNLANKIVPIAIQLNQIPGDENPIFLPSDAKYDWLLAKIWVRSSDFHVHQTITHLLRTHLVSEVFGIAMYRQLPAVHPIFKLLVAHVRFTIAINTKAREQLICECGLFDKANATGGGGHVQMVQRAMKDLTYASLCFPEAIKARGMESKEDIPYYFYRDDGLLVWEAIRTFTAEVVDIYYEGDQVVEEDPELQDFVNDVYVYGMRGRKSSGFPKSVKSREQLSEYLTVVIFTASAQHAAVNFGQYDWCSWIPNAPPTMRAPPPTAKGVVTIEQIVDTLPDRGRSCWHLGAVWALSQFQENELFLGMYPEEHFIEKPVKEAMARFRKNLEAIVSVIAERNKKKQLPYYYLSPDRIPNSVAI
As to the kind of experiment: Test a) in vitro heparinised human blood, A23187 challenge, LTB4 radioimmunoassay (indirect inhibition of 5-LO). The experiment is classed as cell-based. Here is the method: a) An in vitro assay system involving incubating a test compound with heparinised human blood, prior to challenge with the calcium ionophore A^23187 and then indirectly measuring the inhibitory effects on 5-LO by assaying the amount of LTB4 using specific radioimmunoassays described by Carey and Forder (Prostaglandins, Leukotrienes Med., 1986, 22, 57; Prostaglandins, 1984, 28, 666; Brit. J. Pharmacol., 1985, 84, 34P) which involves the use of a protein-LTB4 conjugate produced using the procedure of Young et alia (Prostaglandins, 1983, 26(4), 605-613). The effects of a test compound on the enzyme cyclooxygenase (which is involved in the alternative metabolic pathway for arachidonic acid and gives rise to prostaglandins, thromboxanes and related metabolites) may be measured at the same time using the specific radioimmunoassay for thromboxane B2 (TxB2) described by Carey and Forder (see above). This test provides an indication of the effects of a test compound against 5-LO and also cyclooxygenase in the presence of blood cells and proteins. It permits the selectivity of the inhibitory effect on 5-LO or cyclooxygenase to be assessed.

Experiment [1] relates to LTB4 liberation induced by zymosan (5-LO). The experiment can be described thus: Test c) in vivo zymosan-induced LTB4 liberation in rat subcutaneous air pouch, oral administration. Conditions: 3 h; test c). Here is the method: c) An in vivo system involving measuring the effects of a test compound administered orally against the liberation of LTB4 induced by zymosan within an air pouch generated within the subcutaneous tissue of the back of male rats. The rats are anaesthetised and air pouches are formed by the injection of sterile air (20 ml). A further injection of air (10 ml) is similarly given after 3 days. At 6 days after the initial air injection the test compound is administered (usually orally as the suspension produced when a solution of the test compound in dimethylsulphoxide is added to hydroxypropylmethylcellulose), followed by the intrapouch injection of zymosan (1 ml of a 1% suspension in physiological saline). After 3 hours the rats are killed, the air pouches are lavaged with physiological saline, and the specific radioimmunoassay described above is used to assay LTB4 in the washings. This test provides an indication of inhibitory effects against 5-LO in an inflammatory milieu.

The term IC50 denotes the midpoint of a concentration-inhibition curve. The low end stands for greater potency, the high end for weaker potency. A word on the ED50: it is the midpoint of the dose-response relation.

As to `CONC(C)c1ccc(Sc2cc(F)cc(C3(OC)CCOCC3)c2)cc1` (stereo not drawn) [N-{4-[5-fluoro-3-(4-methoxytetrahydropyran-4-yl)phenylthio]-α-methylbenzyl}-O-methylhydroxylamine], the IC50 on 5-LO worked out at 40 nM. In experiment [1], the ED50 was about 0.5 mg/kg.
The corresponding values for `COC1(c2cc(F)cc(Sc3ccc(C(C)N(OC(C)=O)C(C)=O)cc3)c2)CCOCC1` (stereo not drawn) [O-acetyl-N-{4-[5-fluoro-3-(4-methoxytetrahydropyran-4-yl)phenylthio]-α-methylbenzyl}acetohydroxamic acid] are 150 nM and about 0.5 mg/kg.
Molecule `COC1(c2cc(F)cc(Sc3ccc(C(C)N(O)C(N)=O)cc3)c2)CCOCC1` (stereo not drawn) [N-{4-[5-fluoro-3-(4-methoxytetrahydropyran-4-yl)phenylthio]-α-methylbenzyl)-N-hydroxyurea] showed an IC50 against 5-LO of 570 nM. The ED50 in experiment [1] is about 0.5 mg/kg.

(Values after patent US5453439A, “Hydroxylamine derivatives” (Zeneca Limited, priority 1992, dated 1995).)
